Experimental data: patent publication US10519115B2, “Antidiabetic tricyclic compounds” (Merck Sharp & Dohme Corp., priority 2013, dated 2019)
pEC50: −log10 of the molar value.

Key:
Human GPR40 [1] = target: T1, Human GPR40 (Homo sapiens, UniProt O14842); experiment: Inositol Phosphate Turnover Assay 1 (HEK cells stably expressing human GPR40); format: cell-based; set-up: expressed in transfected cells; host or cells: HEK cells stably expressing the aequorin reporter; conditions: HEK cells stably expressing human GPR40, 96-well, 3H-inositol; read-out: Human GPR40 IP1 Assay 1, EC50
Description: (§1) Human and mouse GPR40 stable cell-lines were generated in CHO cells stably expressing NFAT BLA (Beta-lactamase). A human GPR40 stable cell-line was generated in HEK cells stably expressing the aequorin expressing reporter. The expression plasmids were transfected using lipofectamine (Life Technologies) following manufacturer's instructions. Stable cell-lines were generated following drug selection.
The assay was performed in 96-well format. HEK cells stably expressing human GPR40 were plated to be 60-80% confluent within 72 h. After 72 h, the plates were aspirated and the cells washed with inositol-free DMEM (ICN). The wash media was replaced with 150 μL of 3H-inositol labeling media (inositol-free media containing 0.4% human albumin or 0.4% mouse albumin, 1× pen/strep antibiotics, glutamine, 25 mM HEPES to which was added 3H-myo-inositol NEN #NET114A 1 mCi/mL, 25 Ci/mmol diluted 1:150 in loading media with a final specific radioactivity of 1 μCi/150 μL). Alternatively, the human and mouse albumin can be added after the overnight labeling step before the addition of LiCl.
The assay was typically run the next day after 18 h labeling. On the day of the assay, 5 μL of 300 mM LiCl was added to all wells and incubated at 37 degrees for 20 min. 0.75 μL of 200× compounds were added and incubated with the cells for 60 min at 37 degrees. The media was then aspirated off and the assay terminated with the addition of 60 μL 10 mM formic acid. The cells were lysed for 60 min at room temperature. 15-30 μL of lysate was mixed with 70 μL/1 mg YSi SPA beads (Amersham) in clear bottom Isoplates. The plates were shaken for 2 h at room temperature. Beads were allowed to settle and the plates were counted in the Wallac Microbeta.

Human GPR40 [2] = target: T1, Human GPR40; experiment: FLIPR assay (agonist-induced calcium mobilization, GPR40/CHO NFAT BLA cells); format: cell-based; set-up: expressed in transfected cells
Description: as §1
FLIPR (Fluorimetric Imaging Plate Reader, Molecular Devices) assays were performed to measure agonist-induced calcium mobilization of the stable clones. For the FLIPR assay, one day before assay, GPR40/CHO NFAT BLA cells were seeded into black-wall-clear-bottom 384-well plates (Costar) at 1.4×10e4 cells/20 μL medium/well. The cells were incubated with 20 μl/well of the assay buffer (HBSS, 0.1% BSA, 20 mM HEPES, 2.5 mM probenecid, pH 7.4) containing 8 μM fluo-4, AM, 0.08% pluronic acid at room temperature for 100 minutes. Fluorescence output was measured using FLIPR. Compounds were dissolved in DMSO and diluted to desired concentrations with assay buffer. 13.3 μL/well of compound solution was added.

T1 sequence (O14842 whole entry): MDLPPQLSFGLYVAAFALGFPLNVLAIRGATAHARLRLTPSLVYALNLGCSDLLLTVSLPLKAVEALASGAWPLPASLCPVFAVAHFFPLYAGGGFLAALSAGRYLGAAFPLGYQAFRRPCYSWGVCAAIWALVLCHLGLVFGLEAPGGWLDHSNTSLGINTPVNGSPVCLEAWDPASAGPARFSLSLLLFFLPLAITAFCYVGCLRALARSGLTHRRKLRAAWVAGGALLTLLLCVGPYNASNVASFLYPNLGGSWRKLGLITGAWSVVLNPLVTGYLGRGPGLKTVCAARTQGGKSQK

Row | pEC50 (Human GPR40 [1]) | pEC50 (Human GPR40 [2]) | Compound
1 | 7.89 | 8.38 | CS(=O)(=O)N1CCC(c2ccc(-c3cc(COc4cc5c(cn4)[C@H]4[C@@H](C5)[C@@H]4C(=O)O)c(F)cc3C(F)(F)F)cc2)CC1 [Compound-5, (5aR,6S,6aS)-3-((4-fluoro-4′-(1-(methylsulfonyl)piperidin-4-yl)-6-(trifluoromethyl)-[1,1′-biphenyl]-3-yl)methoxy)-5,5a,6,6a-tetrahydrocyclopropa[4,5]cyclopenta[1,2-c]pyridine-6-carboxylic acid]
2 | 7.82 | 8.17 | CC(C)(O)Cn1cc2c(n1)CN(c1ccc(-c3cc(COc4cc5c(cn4)[C@H]4[C@@H](C5)[C@@H]4C(=O)O)c(F)cc3C(F)(F)F)c(F)c1)C2 [Compound-13, (5aR,6S,6aS)-3-((2′,4-difluoro-4′-(2-(2-hydroxy-2-methylpropyl)pyrrolo[3,4-c]pyrazol-5(2H,4H,6H)-yl)-6-(trifluoromethyl)-[1,1′-biphenyl]-3-yl)methoxy)-5,5a,6,6a-tetrahydrocyclo-propa[4,5]cyclopenta[1,2-c]pyridine-6-carboxylic acid]
3 | 7.33 | 8.38 | O=C(O)[C@H]1[C@@H]2Cc3cc(OCc4cc(-c5ccc(C6CCN(S(=O)(=O)C7CC7)CC6)cc5)c(C(F)(F)F)cc4F)ncc3[C@@H]21 [Compound-6, (5aR,6S,6aS)-3-((4′-(1-(cyclopropylsulfonyl)piperidin-4-yl)-4-fluoro-6-(trifluoromethyl)-[1,1′-biphenyl]-3-yl)methoxy)-5,5a,6,6a-tetrahydrocyclopropa[4,5]cyclopenta[1,2-c]pyridine-6-carboxylic acid]
4 | 7.96 | 8.15 | C[C@]1(O)C[C@@H](COc2ccc(-c3cc(COc4cc5c(cn4)[C@H]4[C@@H](C5)[C@@H]4C(=O)O)c(F)cc3C(F)(F)F)cc2F)C1 [Compound-1, (5aR,6S,6aS)-3-{[3′,4-difluoro-4′-(((1s,3s)-3-hydroxy-3-methylcyclobutyl)methoxy)-6-(trifluoromethyl)-[1,1′-biphenyl]-3-yl]methoxy}-5,5a,6,6a-tetrahydrocyclopropa[4,5]cyclopenta[1,2-c]pyridine-6-carboxylic acid]

More lines, now with the values behind:

Row | Compound | pEC50 (Human GPR40 [1]) | pEC50 (Human GPR40 [2])
5 | C[C@]1(O)CC[C@H](Oc2c(F)cc(-c3cc(COc4cc5c(cn4)[C@H]4[C@@H](C5)[C@@H]4C(=O)O)c(F)cc3C(F)(F)F)cc2F)CC1 [Compound-3, (5aR,6S,6aS)-3-{[3′,4,5′-trifluoro-4′-(((1r,4r)-4-hydroxy-4-methylcyclohexyl)oxy)-6-(trifluoromethyl)-[1,1′-biphenyl]-3-yl]methoxy}-5,5a,6,6a-tetrahydrocyclopropa[4,5]cyclopenta[1,2-c]pyridine-6-carboxylic acid] | 7.85 | 8.43
6 | CC(C)(O)C1CCN(c2ccc(-c3cc(COc4cc5c(cn4)[C@H]4[C@@H](C5)[C@@H]4C(=O)O)c(F)cc3C(F)(F)F)c(F)c2)CC1 [Compound-12, (5aR,6S,6aS)-3-((2′,4-difluoro-4′-(4-(2-hydroxypropan-2-yl)piperidin-1-yl)-6-(trifluoromethyl)-[1,1′-biphenyl]-3-yl)methoxy)-5,5a,6,6a-tetrahydrocyclopropa[4,5]cyclopenta[1,2-c]-pyridine-6-carboxylic acid] | 7.70 | 8.21
7 | CS(=O)(=O)N1CC2(CN(c3ccc(-c4cc(COc5cc6c(cn5)[C@H]5[C@@H](C6)[C@@H]5C(=O)O)c(F)cc4C(F)(F)F)c(F)c3)C2)C1 [Compound-4, (5aR,6S,6aS)-3-((2′,4-difluoro-4′-(6-(methylsulfonyl)-2,6-diazaspiro[3,3]heptan-2-yl)-6-(trifluoromethyl)-[1,1′-biphenyl]-3-yl)methoxy)-5,5a,6,6a-tetrahydrocyclopropa[4,5]-cyclopenta[1,2-c]pyridine-6-carboxylic acid] | 7.72 | 8.00
